According to patent US11964973B2 (priority 2019, dated 2024):
Where two headings read alike, the source gives them in different places.

What was measured:
[1] = tested on: naïve human CD8 T cells; assay: CellTiter-Glo CD8 T cell proliferation assay; assay type: cell-based; conditions: read-out: CD8 GLO Normalized EC50
Description: Assay 4: CellTiter-Glo CD8 T Cell Proliferation Assay
Frozen naïve human CD8 T cells were thawed in RPMI+10% FBS, incubated for 2 h in 37° C., and counted. The 384-well tissue culture plate was coated overnight at 4° C. with 20 μl anti-human CD3 at 0.1 μg/mL in plain RPMI, which was removed off the plate before 20 k/40 μL CD8 T cells with 0.5 μg/ml soluble anti-human CD28 were added to each well. The compounds were echoed to the cell plate immediately after the cells were plated. After 72 h incubation at 37° C. incubator, 10 μL CellTiter-glo reagent (Promega catalog number G7570) was added to each well. The plate was vigorously shaken for 5 mins, incubated at room temperature for another 15 mins and read on Envision for CD8 T cell proliferation. In analysis, 0.1 μg/mL anti-CD3 and 0.5 μg/mL anti-CD28 stimulated CD8 T cell signal was background.

[2] = molecular target: DGKα (Homo sapiens (Human), UniProt P23743); assay: biochemical; assay type: biochemical; conditions: liposome (LIPGLO) assay; read-out: DGKα LIPGLO IC50
Chain of DGKα (P23743 whole entry, looked up): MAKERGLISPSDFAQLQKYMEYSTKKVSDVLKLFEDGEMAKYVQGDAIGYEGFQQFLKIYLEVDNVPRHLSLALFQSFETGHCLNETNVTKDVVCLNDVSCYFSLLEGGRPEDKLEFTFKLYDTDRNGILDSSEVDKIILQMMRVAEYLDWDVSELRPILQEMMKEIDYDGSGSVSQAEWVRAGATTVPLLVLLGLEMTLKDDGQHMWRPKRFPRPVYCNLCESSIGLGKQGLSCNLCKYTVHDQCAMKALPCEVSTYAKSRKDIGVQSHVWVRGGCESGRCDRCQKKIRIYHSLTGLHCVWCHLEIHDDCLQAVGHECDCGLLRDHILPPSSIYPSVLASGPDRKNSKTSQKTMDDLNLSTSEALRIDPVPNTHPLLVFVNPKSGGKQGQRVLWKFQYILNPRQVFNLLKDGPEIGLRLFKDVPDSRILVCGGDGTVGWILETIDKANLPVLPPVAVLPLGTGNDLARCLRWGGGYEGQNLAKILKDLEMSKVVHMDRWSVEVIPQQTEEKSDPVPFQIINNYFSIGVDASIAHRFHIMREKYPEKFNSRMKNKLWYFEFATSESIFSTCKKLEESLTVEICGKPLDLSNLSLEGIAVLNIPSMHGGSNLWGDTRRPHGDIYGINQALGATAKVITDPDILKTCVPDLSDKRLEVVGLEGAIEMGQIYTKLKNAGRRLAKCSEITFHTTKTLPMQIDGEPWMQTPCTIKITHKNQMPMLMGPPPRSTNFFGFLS

[3] = tested on: Human venous whole blood (IFN-γ); assay: Human whole blood IFN-γ assay; assay type: cell-based; conditions: Homo sapiens, 24 h, human whole blood, anti-CD3 plus anti-CD28, 24 hours; read-out: INFg Whole Blood Normalized Agonist EC50
Description: Assay 10: Human Whole Blood IFN-γ Assay
Human venous whole blood (22.5 μL per well), obtained from healthy donors, was pre-treated with compounds for one hour at 37° C. in a humidified 95% air/5% CO2 incubator. The blood was stimulated with 2.5 μL anti-human CD3 and anti-CD28 mAb at a final concentration of 1 μg/mL each for 24 hours at 37° C. IFN-γ in the supernatants was measured using AlphLISA kit (Cat #AL217).

[4] = tested on: OT-1 CD8+ T cells with SIINFEKL-loaded MC38 tumor cells; assay: Murine cytotoxic T lymphocyte assay (IFN-γ); assay type: cell-based, mouse; conditions: murine cytotoxic T lymphocyte, IFN-γ, read-out: msCTL INFg IC50
Source text: Assay 6: Murine Cytotoxic T Lymphocyte Assay
An antigen-specific cytolytic T-cell (CTL) assay was developed to evaluate functionally the ability of DGKα and DGKζ inhibitors to enhance effector T cell mediated tumor cell killing activity. CD8+ T-cells isolated from the OT-1 transgenic mouse recognize antigen presenting cells, MC38, that present the ovalbumin derived peptide […]. Recognition of the cognate antigen initiates the cytolytic activity of the OT-1 antigen-specific CD8+ T cells.
Functional CTL cells were generated as follows: OT-1 splenocytes from 8-12 week old mice were isolated and expanded in the presence of the […] peptide at 1 μg/mL and mIL2 at 10 U/mL. After three days, fresh media with […] was added. On day 5 of the expansion, the CD8+ T cells were isolated and ready for use. Activated CTL cells may be stored frozen for 6 months. Separately, one million MC38 tumor cells were pulsed with 1 μg/mL of […]-OVA peptide for 3 hours at 37° C. The cells were washed (3×) with fresh media to remove excess peptide. Finally, CTL cells that were pretreated with DGK inhibitors for 1 hour in a 96-well U bottom plate were combined with the antigen loaded MC38 tumor cells at a 1:10 ratio. The cells were then spun at 700 rpm for 5 min and placed in an incubator overnight at 37° C. After 24 hours, the supernatant was collected for analysis of IFN-γ cytokine levels by AlphaLisa purchased from Perkin Elmer.

[5] = molecular target: human DGKζ (Homo sapiens (Human), UniProt Q13574); assay: biochemical; assay type: biochemical; conditions: read-out: DGKζ LIPGLO IC50
Chain of human DGKζ (Q13574 whole entry, looked up): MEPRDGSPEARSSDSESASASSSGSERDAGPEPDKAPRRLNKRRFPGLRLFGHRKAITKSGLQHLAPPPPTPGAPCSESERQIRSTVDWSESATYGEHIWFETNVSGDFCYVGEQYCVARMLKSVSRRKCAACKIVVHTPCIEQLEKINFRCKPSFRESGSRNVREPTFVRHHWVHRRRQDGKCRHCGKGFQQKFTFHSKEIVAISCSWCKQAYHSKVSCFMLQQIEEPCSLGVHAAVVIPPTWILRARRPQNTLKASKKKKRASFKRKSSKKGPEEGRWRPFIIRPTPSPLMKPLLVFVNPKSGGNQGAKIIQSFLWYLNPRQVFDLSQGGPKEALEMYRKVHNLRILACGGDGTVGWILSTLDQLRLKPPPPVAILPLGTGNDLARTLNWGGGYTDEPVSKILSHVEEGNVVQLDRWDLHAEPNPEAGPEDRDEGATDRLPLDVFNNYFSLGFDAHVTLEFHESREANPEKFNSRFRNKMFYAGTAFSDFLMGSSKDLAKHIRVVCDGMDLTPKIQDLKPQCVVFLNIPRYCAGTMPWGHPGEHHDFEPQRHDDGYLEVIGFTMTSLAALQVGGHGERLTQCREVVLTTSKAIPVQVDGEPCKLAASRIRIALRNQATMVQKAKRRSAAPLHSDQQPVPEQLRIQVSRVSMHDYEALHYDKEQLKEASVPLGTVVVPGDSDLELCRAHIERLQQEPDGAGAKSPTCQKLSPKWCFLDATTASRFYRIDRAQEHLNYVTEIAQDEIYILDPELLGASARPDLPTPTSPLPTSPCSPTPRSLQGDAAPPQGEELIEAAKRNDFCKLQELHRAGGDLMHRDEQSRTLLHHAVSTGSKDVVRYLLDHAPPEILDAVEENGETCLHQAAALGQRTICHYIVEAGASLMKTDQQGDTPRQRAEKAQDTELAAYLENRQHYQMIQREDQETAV

Compound	EC50 ([1]; Homo sapiens) [µM]	IC50 [2] [µM]	EC50 [3] [µM]	IC50 ([4]; Mus musculus, MC-38) [µM]	IC50 ([5]; liposome (LIPGLO) assay) [µM]	EC50 [1] [µM]	IC50 [4] [µM]	IC50 [5] [µM]
Cc1cc(F)cc(OC2CCN(c3c([N+](=O)[O-])c(=O)n(C)c4ccc(F)cc34)CC2)c1 [Example 1, 6-fluoro-4-(4-(3-fluoro-5-methylphenoxy)piperidin-1-yl)-1-methyl-3-nitroquinolin-2(1H)-one]	1.6	0.24	10	5.2	100	–	–	–
Cn1c(=O)c([N+](=O)[O-])c(N2CCC(Oc3ccc(OC(F)(F)F)cc3)CC2)c2cc(F)ccc21 [Example 3, 6-fluoro-1-methyl-3-nitro-4-(4-(4-(trifluoromethoxy)phenoxy)piperidin-1-yl)quinolin-2(1H)-one]	0.49	0.11	10	1.5	240	–	–	–
COc1cccc(OC2CCN(c3c(C#N)c(=O)n(C)c4ccc(Cl)nc34)CC2)c1 [Example 10, 6-chloro-4-(4-(3-methoxyphenoxy)piperidin-1-yl)-1-methyl-2-oxo-1,2-dihydro-1,5-naphthyridine-3-carbonitrile]	0.14	0.15	5	4.5	2.8	–	–	–
Cn1c(=O)c(C#N)c(N2CCC(Oc3ccc(Cl)cc3)CC2)c2nc(Cl)ccc21 [Example 16, 6-chloro-4-(4-(4-chlorophenoxy)piperidin-1-yl)-1-methyl-2-oxo-1,2-dihydro-1,5-naphthyridine-3-carbonitrile]	0.093	1.7	10	1.1	–	–	–	–
Cn1c(=O)c(C#N)c(N2CCC(Oc3ccc(OC(F)(F)F)cc3)CC2)c2nc(Cl)ccc21 [Example 19, 6-chloro-1-methyl-2-oxo-4-(4-(4-(trifluoromethoxy)phenoxy)piperidin-1-yl)-1,2-dihydro-1,5-naphthyridine-3-carbonitrile]	0.28	0.32	10	0.21	–	–	–	–
Cn1c(=O)c(C#N)c(N2CCC(Oc3cccc(C(F)(F)F)c3)CC2)c2nc(Cl)ccc21 [Example 24, 6-chloro-1-methyl-2-oxo-4-(4-(3-(trifluoromethyl)phenoxy)piperidin-1-yl)-1,2-dihydro-1,5-naphthyridine-3-carbonitrile]	0.75	2	–	1.5	27	–	–	–
CN(C)C(=O)c1ccc(OC2CCN(c3c(C#N)c(=O)n(C)c4ccc(Cl)nc34)CC2)cc1 [Example 25, 4-((1-(6-chloro-3-cyano-1-methyl-2-oxo-1,2-dihydro-1,5-naphthyridin-4-yl)piperidin-4-yl)oxy)-N,N-dimethylbenzamide]	1.2	0.73	–	10	240	–	–	–
Cc1cc(OC(F)(F)F)ccc1OC1CCN(c2c(C#N)c(=O)n(C)c3ccc(Cl)nc23)CC1 [Example 29, -chloro-1-methyl-4-(4-(2-methyl-4-(trifluoromethoxy)phenoxy)piperidin-1-yl)-2-oxo-1,2-dihydro-1,5-naphthyridine-3-carbonitrile]	–	3.8	–	–	–	5.9	10	240
Cn1c(=O)c(C#N)c(N2CCC(Oc3ccc(C(F)(F)F)cc3)CC2)c2nc(Cl)ccc21 [Example 30, 6-chloro-1-methyl-2-oxo-4-(4-(4-(trifluoromethyl)phenoxy)piperidin-1-yl)-1,2-dihydro-1,5-naphthyridine-3-carbonitrile]	10	0.98	–	3.5	240	–	–	–
Cn1c(=O)c(C#N)c(N2CCC(Oc3ccc(OC(C)(C)C)cc3)CC2)c2nc(Cl)ccc21 [Example 31, 4-(4-(4-(tert-butoxy)phenoxy)piperidin-1-yl)-6-chloro-1-methyl-2-oxo-1,2-dihydro-1,5-naphthyridine-3-carbonitrile]	0.044	0.28	–	10	11	–	–	–
Cn1c(=O)c(C#N)c(N2CCC(Oc3ccccc3OC(F)(F)F)CC2)c2nc(Cl)ccc21 [Example 33, 6-chloro-1-methyl-2-oxo-4-(4-(2-(trifluoromethoxy)phenoxy)piperidin-1-yl)-1,2-dihydro-1,5-naphthyridine-3-carbonitrile]	10	2.8	–	3.8	240	–	–	–
Cn1c(=O)c(C#N)c(N2CCC(Oc3cccc(C#N)c3)CC2)c2nc(Cl)ccc21 [Example 34, 6-chloro-4-(4-(3-cyanophenoxy)piperidin-1-yl)-1-methyl-2-oxo-1,2-dihydro-1,5-naphthyridine-3-carbonitrile]	4.1	1.1	–	8.5	9	–	–	–
Cn1c(=O)c(C#N)c(N2CCC(Oc3ccc(C#N)c(Cl)c3)CC2)c2nc(Cl)ccc21 [Example 38, 6-chloro-4-(4-(3-chloro-4-cyanophenoxy)piperidin-1-yl)-1-methyl-2-oxo-1,2-dihydro-1,5-naphthyridine-3-carbonitrile]	1.6	1.8	–	10	9	–	–	–
COc1cc(OC2CCN(c3c(C#N)c(=O)n(C)c4ccc(Cl)nc34)CC2)ccc1Cl [Example 39, 6-chloro-4-(4-(4-chloro-3-methoxyphenoxy)piperidin-1-yl)-1-methyl-2-oxo-1,2-dihydro-1,5-naphthyridine-3-carbonitrile]	0.13	0.35	–	3.7	14	–	–	–
Cc1ccc(OC2CCN(c3c(C#N)c(=O)n(C)c4ccc(Cl)nc34)CC2)cc1Cl [Example 40, 6-chloro-4-(4-(3-chloro-4-methylphenoxy)piperidin-1-yl)-1-methyl-2-oxo-1,2-dihydro-1,5-naphthyridine-3-carbonitrile]	1.2	0.74	–	10	9	–	–	–
Cn1c(=O)c(C#N)c(N2CCC(Oc3ccc(OC(F)(F)F)cc3Cl)CC2)c2nc(Cl)ccc21 [Example 41, 6-chloro-4-(4-(2-chloro-4-(trifluoromethoxy)phenoxy)piperidin-1-yl)-1-methyl-2-oxo-1,2-dihydro-1,5-naphthyridine-3-carbonitrile]	0.21	1.1	–	10	23	–	–	–
Cn1c(=O)c(C#N)c(N2CCC(Oc3ccc(OC(F)(F)F)c(Cl)c3)CC2)c2nc(Cl)ccc21 [Example 42, 6-chloro-4-(4-(3-chloro-4-(trifluoromethoxy)phenoxy)piperidin-1-yl)-1-methyl-2-oxo-1,2-dihydro-1,5-naphthyridine-3-carbonitrile]	0.7	5.4	–	10	240	–	–	–
Cn1c(=O)c(C#N)c(N2CCC(Oc3ccccc3C#N)CC2)c2nc(Cl)ccc21 [Example 43, 6-chloro-4-(4-(2-cyanophenoxy)piperidin-1-yl)-1-methyl-2-oxo-1,2-dihydro-1,5-naphthyridine-3-carbonitrile]	10	1.5	–	10	27	–	–	–
Cn1c(=O)c(C#N)c(N2CCC(Oc3ccccc3)CC2)c2nc(Cl)ccc21 [Example 46, 6-chloro-1-methyl-2-oxo-4-(4-phenoxypiperidin-1-yl)-1,2-dihydro-1,5-naphthyridine-3-carbonitrile]	1.2	0.15	–	8.5	27	–	–	–
Cn1c(=O)c(C#N)c(N2CCC(Oc3ccc(OC(F)(F)F)cc3)CC2)c2nc(Br)ccc21 [Example 47, 6-Bromo-1-methyl-2-oxo-4-(4-(4-(trifluoromethoxy)phenoxy)piperidin-1-yl)-1,2-dihydro-1,5-naphthyridine-3-carbonitrile]	0.49	0.45	–	0.68	240	–	–	–
